According to patent EP0398217B1, “Dehydrocholecalciferol derivatives” (F. HOFFMANN-LA ROCHE AG, priority 1989, dated 1990):
pEC50: −log10 of the molar value. Marks after values point to notes of the source that are not given here.

Key:
[1] = system: menschlichen Sebocyten; experiment: Inhibition of sebocyte proliferation in vitro (sebocytes cultured on 3T3 fibroblast layer, cell count by haemocytometer); type: cell-based; conditions: amount inhibiting sebocyte proliferation by 50% versus solvent-treated control culture, read-out: ED₅₀
Method: 22a, Abstract 46 beschriebenen Methode isoliert und auf einer Schicht von Mäusen-Fibroblasten 3T3 kultiviert. Durch enzymatische und mechanische Methoden wurde aus Hautgewebe eine Suspension von Sebocyten hergestellt. Dazu wurden die Zellen entweder in 2% Humanserum, 8% fetales Kälberserum und 4 µg/ml Dexamethason oder in 10% fetales Kälberserum und 4 µg/ml Dexamethason enthaltendem Iscove-Medium kultiviert
Den Kulturen wurden die Testverbindungen im Medium alle 48 Stunden zugegeben. Nach der letzten Zugabe wurden die Fibroblasten 3T3 mit 0,03% EDTA in PBS abgespült. Die zurückbleibenden Sebocyten-Kolonien wurden in 0,05% Trypsin/0,03% EDTA unter Bildung einer einheitlichen Zellensuspension von Sebocyten inkubiert. Die Zellen wurden dann verdünnt und mittels eines Hämocytometers gezählt.
Es wurden 10⁻² M äthanolische Lösungen der Testverbindungen vorbereitet und dann auf 10⁻⁶, 10⁻⁷, 10⁻⁸ und 10⁻⁹ M verdünnt.
Die Resultate sind in der nachstehenden Tabelle 1 als Menge der Verbindung, die die Proliferation der Sebocyten um 50% gegenüber einem Kontrollwert hemmen, angegeben. Der Kontrollwert wurde aus einer lediglich mit Lösungsmittel behandelten Zellenkultur erhalten. Tabelle 1

[2] = system: Talgdrüsen des Hamsterohrs; experiment: Topical activity on sebaceous glands of the hamster ear (daily application for 4 weeks); type: in vivo; conditions: change of sebaceous gland cross-section versus acetone controls
Method: Die topische Wirksamkeit von Verbindungen der Formel I gegen Akne wurde an Talgdrüsen des Hamsterohrs gemessen. Versuchstieren wurden 50 µl einer Lösung der Testverbindung und Kontrolltieren 50 µl Aceton täglich auf das Ohr appliziert. Nach 4 Wochen wurden die Tiere getötet. Die Fläche der Talgdrüsen auf den Ohren wurde ermittelt. In der Tabelle 2 sind die Resultate als %-Aenderung gegenüber Kontrolltieren der Veränderung des Querschnitts der Talgdrüsen auf dem Hamsterohr angegeben: Tabelle 2

[3] = Soft tissue calcification in rats (45Ca radioactivity in heart and kidneys); type: in vivo, Ratten; conditions: ratio relative to compound X (=1); for Verkalkungsverhältnis Subkutan: subcutaneous administration for 4 days; for Verkalkungsverhältnis Topisch: topical administration for 4 days
Method: Zum Nachweis der Verkalkung von weichem Gewebe durch die Verbindungen der Formel I erhielten Ratten subkutane Injektionen von 40 µCi ⁴⁵Ca. Die Verbindungen wurden dann subkutan oder topisch während 4 Tagen den Tieren verabreicht. Die Ratten wurden 1 Tag nach der letzten Injektion getötet. Herz und Nieren wurden entfernt und mit Salpetersäure behandelt. Es wurde die Radioaktivität einer Menge von 0,2 ml dieser Präparation gemessen.

[4] = system: Talgdrüsen des Hamsterohrs; experiment: Effect on sebaceous glands of the hamster ear after oral administration (daily for 4 weeks); type: in vivo, syrischen Goldhamstern; conditions: change of sebaceous gland cross-section
Method: Der Effekt von Verbindungen der Formel I auf die Talgdrüsen des Hamsterohrs nach oraler Verabreichung wurde ermittelt. Männlichen syrischen Goldhamstern wurden täglich 200 µl einer Lösung der Testverbindungen in Propylenglykol oral verabreicht. Nach 4 Wochen wurden die Tiere getötet. Die Fläche der Talgdrüsen auf den Ohren wurde ermittelt. Die Resultate sind in Tabelle 4 als Veränderung im Querschnitt der Talgdrüsen des Hamsterohrs angegeben: Tabelle 4

[5] = topical, 10,00 µg/Hamster daily
[6] = oral, 5,00 µg/kg daily in propylene glycol

| SMILES | pEC50 [1] | % Aenderung ([2]; topical, 0,10 µg/Hamster daily) [%] | % Aenderung ([2]; topical, 1,00 µg/Hamster daily) [%] | % Aenderung [2, 5] [%] | Verkalkungsverhältnis Subkutan [3] | Verkalkungsverhältnis Topisch [3] | % Veränderung ([4]; oral, 0,05 µg/kg daily in propylene glycol) | % Veränderung ([4]; oral, 0,50 µg/kg daily in propylene glycol) | % Veränderung [4, 6] | % Veränderung ([4]; oral, 50,00 µg/kg daily in propylene glycol) | % Veränderung ([4]; oral, 2,50 µg/kg daily in propylene glycol) | % Veränderung ([4]; oral, 10,00 µg/kg daily in propylene glycol) | % Veränderung ([4]; oral, 20,00 µg/kg daily in propylene glycol) |
| --- | --- | --- | --- | --- | --- | --- | --- | --- | --- | --- | --- | --- | --- |
| C=C1/C(=C\C=C2/CCC[C@]3(C)C([C@H](C)CCCC(C)(C)O)=CC[C@@H]23)C[C@@H](O)C[C@@H]1O [A, 1α,25-Dihydroxy-16-dehydrocholecalciferol] | 9.00 | – | – | – | – | – | – | – | – | – | – | – | – |
| C=C1CC[C@H](O)C/C1=C/C=C1\CCC[C@]2(C)C([C@H](C)CC#CC(C)(C)O)=CC[C@@H]12 [F, 25-Hydroxy-16-dehydro-23-didehydrocholecalciferol] | 7.00 | -23 | -40 | -64 | >1400 | >34 | -16* % | -23** % | -42*** % | -55*** % | – | – | – |
| C=C1CC[C@H](O)C/C1=C/C=C1\CCC[C@]2(C)C([C@H](C)C/C=C/C(C)(C)O)=CC[C@@H]12 [Verbindung D, 25-Hydroxy-16,23E-bisdehydrocholecalciferol] | < 6.00 | -16 | -16 | -43 | >1400 | >34 | – | – | -22** % | – | -15* % | -27*** % | -36*** % |
| C=C1/C(=C\C=C2/CCC[C@]3(C)C([C@H](C)CC#CC(C)(C)O)=CC[C@@H]23)C[C@@H](O)C[C@@H]1O [Verbindung E, 1α,25-Dihydroxy-16-dehydro-23-didehydrocholecalciferol] | 9.00 | – | – | – | 47 | > 1 | – | – | – | – | – | – | – |
| C=C1/C(=C\C=C2/CCC[C@]3(C)[C@@H]([C@H](C)CCCC(C)(C)O)CC[C@@H]23)C[C@@H](O)C[C@@H]1O [Verbindung X, 1α,25-Dihydroxycholecalciferol, reference compound] | 8.30 | – | – | – | 1 | 1 | – | – | – | – | – | – | – |
